Source: patent publication US4200635A, “Antibacterially active amides” (Beecham Group Limited, priority 1977, dated 1980)
Converted amounts (≈) assume the structure as drawn. Read-outs that look alike come from different tables or passages of the source.

Experiments:
[1] = system: Pasteurella multocida 1633; experiment: MIC, serial dilution in nutrient agar, human bacteria; type: cell-based; conditions: nutrient agar containing 5% chocolated horse blood
[2] = system: Haemophilus influenzae Q1; experiment: as above; type: cell-based; conditions: nutrient agar containing 5% chocolated horse blood
[3] = system: Haemophilus influenzae Wy21; experiment: as above; type: cell-based
[4] = system: Neisseria flavescens 8263; experiment: as above; type: cell-based; conditions: nutrient agar containing 5% chocolated horse blood
[5] = system: Bacillus subtilis 6633; experiment: as above; type: cell-based
[6] = system: Staph. aureus Oxford; experiment: as above; type: cell-based; conditions: Staphylococcus aureus; Staph. aureus Oxford; nutrient agar containing 5% chocolated horse blood; read-out: M.I.C.
[7] = system: Staph. aureus Russell; experiment: as above; type: cell-based; conditions: Staphylococcus aureus; Staph. aureus Russell; nutrient agar containing 5% chocolated horse blood; read-out: M.I.C.
[8] = system: Strep. pneumoniae CN33; experiment: as above; type: cell-based; conditions: Streptococcus pneumoniae
[9] = system: Bord. bronchiseptica BO9; experiment: MIC, veterinary bacteria; type: cell-based; conditions: Bordetella bronchiseptica
[10] = system: Past. multocida PAI; experiment: MIC, veterinary bacteria; type: cell-based; conditions: Pasteurella multocida
[11] = system: Past. haemolytica PA5; experiment: MIC, veterinary bacteria; type: cell-based; conditions: Mannheimia haemolytica; Past. haemolytica PA5; read-out: M.I.C.
[12] = system: Staph. aureus B4; experiment: MIC, veterinary bacteria; type: cell-based; conditions: Staphylococcus aureus; Staph. aureus B4; read-out: M.I.C.
[13] = system: Staph. aureus 152; experiment: MIC, veterinary bacteria; type: cell-based; conditions: Staphylococcus aureus
[14] = system: Strep. uberis SPU 1; experiment: MIC, veterinary bacteria; type: cell-based; conditions: Streptococcus uberis, SPU1; Strep. uberis SPU 1; read-out: M.I.C.
[15] = system: Strep. dysgalactiae SPD 1; experiment: MIC, veterinary bacteria; type: cell-based; conditions: Streptococcus dysgalactiae, SPD1; Strep. dysgalactiae SPD 1; read-out: M.I.C.
[16] = system: M. dispar NCTC 10125; experiment: in vitro MIC, anti-mycoplasmal activity; type: cell-based; conditions: Friis' broth, microtiter method
Text: (§1) Tables 3 and 4 show the in vitro MIC values (μg/ml) of the compounds of Examples 1 to 9 against a number of mycoplasma organisms, determined in Friis' broth using the microtiter method.

[17] = system: M. fermentans MWKL4; experiment: in vitro MIC, anti-mycoplasmal activity; type: cell-based; conditions: Mycoplasmopsis fermentans, Friis' broth, microtiter method
Text: as §1

[18] = system: M. pulmonis JB; experiment: in vitro MIC, anti-mycoplasmal activity; type: cell-based; conditions: Mycoplasmopsis pulmonis, Friis' broth, microtiter method
Text: as §1

[19] = system: M. suipneumoniae J2206/183b; experiment: in vitro MIC, anti-mycoplasmal activity; type: cell-based; conditions: Mesomycoplasma hyopneumoniae, Friis' broth, microtiter method
Text: as §1

[20] = system: M. pneumoniae 427a; experiment: in vitro MIC, anti-mycoplasmal activity; type: cell-based; conditions: Mycoplasmoides pneumoniae, Friis' broth, microtiter method
[21] = system: Neisseria catarrhalis 1502; experiment: MIC, serial dilution in nutrient agar, human bacteria; type: cell-based
[22] = system: M. suipneumoniae Str. 11; experiment: in vitro MIC, anti-mycoplasmal activity; type: cell-based; conditions: Mesomycoplasma hyopneumoniae, Friis' broth, microtiter method
[23] = system: M. dispar H225; experiment: in vitro MIC, anti-mycoplasmal activity; type: cell-based
Text: as §1

[24] = system: M. pneumoniae ATCC 15492; experiment: in vitro MIC, anti-mycoplasmal activity; type: cell-based; conditions: Mycoplasmoides pneumoniae, ATCC15492, Friis' broth, microtiter method
Text: as §1

[25] = Mouse blood levels; type: in vivo, male albino mice, CS1 strain
Method: The blood levels of the 5-ethoxycarbonylpentyl amide of monic acid A were measured after subcutaneous dosing to male albino mice.
Species: Albino male mice 18-22 g CS1 strain.
Routes: Subcutaneous and oral.
Dose: 50 mg/kg. This compound was supplied as an oil. It was administered as a solution in 10% DMF v/v in PBS or water.
Assay: Neisseria catarrhalis, immediate assay of samples.

[26] = Haemophilus influenzae Wy21, nutrient agar containing 5% chocolated horse blood, read-out: M.I.C.
[27] = Bacillus subtilis 6633, nutrient agar containing 5% chocolated horse blood, read-out: M.I.C.
[28] = Past. multocida PAI, read-out: M.I.C.
[29] = Strep. pneumoniae CN33, nutrient agar containing 5% chocolated horse blood, read-out: M.I.C.
[30] = Neisseria catarrhalis 1502, nutrient agar containing 5% chocolated horse blood, read-out: M.I.C.
[31] = Bord. bronchiseptica BO9, read-out: M.I.C.
[32] = M. dispar H225, Friis' broth, microtiter method, read-out: M.I.C.

| SMILES | MIC [1] | MIC [2] | MIC [3, 26] | MIC [5, 27] | MIC [6] | MIC [7] | MIC [10, 28] | MIC [11] | MIC [12] | MIC [13] | MIC [14] | MIC [15] | MIC [16] | MIC [17] | MIC [18] | MIC [19] | MIC [20] | MIC [8, 29] | MIC [22] | MIC [24] | further results |
| --- | --- | --- | --- | --- | --- | --- | --- | --- | --- | --- | --- | --- | --- | --- | --- | --- | --- | --- | --- | --- | --- |
| CC(=CC(N)=O)CC1OCC(CC2OC2C(C)C(C)O)C(O)C1O (centres unmarked) [Example 1, Primary amide of monic acid A] | 10 µg/mL (≈ 29.1 µM) | 5 µg/mL (≈ 14.6 µM) | 10 µg/mL (≈ 29.1 µM) | 100 µg/mL (≈ 291 µM) | 50 µg/mL (≈ 146 µM) | 100 µg/mL (≈ 291 µM) | 40 µg/mL (≈ 116 µM) | 40 µg/mL (≈ 116 µM) | > 80 µg/mL | > 80 µg/mL | 20 µg/mL (≈ 58.2 µM) | 20 µg/mL (≈ 58.2 µM) | 1.9 µg/mL (≈ 5.53 µM) | 15.6 µg/mL (≈ 45.4 µM) | 15.6 µg/mL (≈ 45.4 µM) | 7.8 µg/mL (≈ 22.7 µM) | 250 µg/mL (≈ 728 µM) | – | – | – | MIC [4]: 2.5 µg/mL (≈ 7.28 µM); MIC ([8]; CN33): 100 µg/mL (≈ 291 µM); MIC ([9]; BO9): 40 µg/mL (≈ 116 µM) |
| CNC(=O)C=C(C)CC1OCC(CC2OC2C(C)C(C)O)C(O)C1O (centres unmarked) [Example 2, N-Methylamide of monic acid A] | 2.5 µg/mL (≈ 6.99 µM) | 0.2 µg/mL (≈ 0.56 µM) | – | 10 µg/mL (≈ 28 µM) | 2.5 µg/mL (≈ 6.99 µM) | 25 µg/mL (≈ 69.9 µM) | – | – | – | – | – | – | < 0.5 µg/mL | 7.8 µg/mL (≈ 21.8 µM) | 1 µg/mL (≈ 2.8 µM) | < 0.5 µg/mL | 125 µg/mL (≈ 350 µM) | 25 µg/mL (≈ 69.9 µM) | – | – | MIC [4]: 1 µg/mL (≈ 2.8 µM) |
| CC(=CC(=O)N(C)C)CC1OCC(CC2OC2C(C)C(C)O)C(O)C1O (centres unmarked) [Example 4, Dimethylamide of monic acid A] | 2.5 µg/mL (≈ 6.73 µM) | 2.5 µg/mL (≈ 6.73 µM) | 2.5 µg/mL (≈ 6.73 µM) | 25 µg/mL (≈ 67.3 µM) | 5 µg/mL (≈ 13.5 µM) | 25 µg/mL (≈ 67.3 µM) | 5 µg/mL (≈ 13.5 µM) | 40 µg/mL (≈ 108 µM) | 20 µg/mL (≈ 53.8 µM) | > 80 µg/mL | 20 µg/mL (≈ 53.8 µM) | 20 µg/mL (≈ 53.8 µM) | 2.5 µg/mL (≈ 6.73 µM) | 1.25 µg/mL (≈ 3.36 µM) | 5 µg/mL (≈ 13.5 µM) | > 10 µg/mL | > 10 µg/mL | 50 µg/mL (≈ 135 µM) | 10 µg/mL (≈ 26.9 µM) | > 10 µg/mL | MIC [21, 30]: 2.5 µg/mL (≈ 6.73 µM); MIC [9, 31]: 40 µg/mL (≈ 108 µM); MIC [23, 32]: 5 µg/mL (≈ 13.5 µM) |
| CCOC(=O)CCCCCNC(=O)C=C(C)CC1OCC(CC2OC2C(C)C(C)O)C(O)C1O (centres unmarked) [Example 5, 5-Ethoxycarbonylpentylamide of monic acid A] | – | 0.05 µg/mL (≈ 0.103 µM) | 0.5 µg/mL (≈ 1.03 µM) | 10 µg/mL (≈ 20.6 µM) | 25 µg/mL (≈ 51.5 µM) | 50 µg/mL (≈ 103 µM) | 0.35 µg/mL (≈ 0.721 µM) | 11 µg/mL (≈ 22.7 µM) | 11 µg/mL (≈ 22.7 µM) | 45 µg/mL (≈ 92.7 µM) | 0.35 µg/mL (≈ 0.721 µM) | 0.7 µg/mL (≈ 1.44 µM) | 0.156 µg/mL (≈ 0.321 µM) | 0.039 µg/mL (≈ 0.0803 µM) | < 0.02 µg/mL | 2.5 µg/mL (≈ 5.15 µM) | > 10 µg/mL | 1 µg/mL (≈ 2.06 µM) | 1.25 µg/mL (≈ 2.57 µM) | 10 µg/mL (≈ 20.6 µM) | MIC ([21]; Neisseria, 1502): 0.05 µg/mL (≈ 0.103 µM); MIC [9, 31]: 23 µg/mL (≈ 47.4 µM); MIC [23, 32]: 0.312 µg/mL (≈ 0.642 µM); concentration at 5 min ([25]; blood, sc, 5 minutes after dosing, 50 mg/kg subcutaneous, mean of 5 experiments, assay Neisseria catarrhalis, read-out: Concentration (blood level)): 22100 ng/mL; concentration at 10 min ([25]; blood, sc, 10 minutes after dosing, 50 mg/kg subcutaneous, mean of 5 experiments, assay Neisseria catarrhalis, read-out: Concentration (blood level)): 22600 ng/mL; concentration at 20 min ([25]; blood, sc, 20 minutes after dosing, 50 mg/kg subcutaneous, mean of 5 experiments, assay Neisseria catarrhalis, read-out: Concentration (blood level)): 16100 ng/mL; concentration at 0.5 h ([25]; blood, sc, 30 minutes after dosing, 50 mg/kg subcutaneous, mean of 5 experiments, assay Neisseria catarrhalis, read-out: Concentration (blood level)): 9100 ng/mL; concentration at 1 h ([25]; blood, sc, 60 minutes after dosing, 50 mg/kg subcutaneous, mean of 5 experiments, assay Neisseria catarrhalis, read-out: Concentration (blood level)): < 4000 ng/mL; half-life ([25]; sc, 50 mg/kg subcutaneous, blood): 15 min; blood levels compared with pseudomonic acid ([25]; subcutaneous dosing): higher and more prolongued than those obtained after subcutaneous dosing of pseudomonic acid |
| CC(=CC(=O)N1CCOCC1)CC1OCC(CC2OC2C(C)C(C)O)C(O)C1O (centres unmarked) [Example 6, Morpholinyl amide of monic acid A] | 1 µg/mL (≈ 2.42 µM) | 0.2 µg/mL (≈ 0.484 µM) | – | – | 10 µg/mL (≈ 24.2 µM) | 50 µg/mL (≈ 121 µM) | – | 20 µg/mL (≈ 48.4 µM) | 20 µg/mL (≈ 48.4 µM) | > 80 µg/mL | 2.5 µg/mL (≈ 6.05 µM) | 2.5 µg/mL (≈ 6.05 µM) | 2.5 µg/mL (≈ 6.05 µM) | 0.625 µg/mL (≈ 1.51 µM) | 0.156 µg/mL (≈ 0.377 µM) | 10 µg/mL (≈ 24.2 µM) | > 10 µg/mL | 10 µg/mL (≈ 24.2 µM) | 2.5 µg/mL (≈ 6.05 µM) | > 10 µg/mL | MIC ([3]; Haemophilus influenzae, WY21): 0.5 µg/mL (≈ 1.21 µM); MIC [21, 30]: 5 µg/mL (≈ 12.1 µM); MIC ([5]; Bacillus subtilis, 6633): 10 µg/mL (≈ 24.2 µM); MIC ([9]; BO9): 20 µg/mL (≈ 48.4 µM); MIC [10]: 0.625 µg/mL (≈ 1.51 µM); MIC [23]: 1.25 µg/mL (≈ 3.02 µM) |
